In series [1] the target is P. berghei-luciferase sporozoites. Nature of the series: microbe, parasite or virus in culture. The class given is cell-based, Plasmodium berghei. The settings on record: liver-stage parasites.
A further series has as its system HEK293T cells. Description: Mammalian cell cytotoxicity assay, HEK293T (CellTiter-Glo, 72 h). The settings on record: read-out: HEK CC50. (ATP-based viability assays read luminescence as a measure of living cells.)
The subject of series [2] is P. falciparum Dd2-HLH. Nature of the series: microbe, parasite or virus in culture. The series is classed as cell-based, Plasmodium falciparum.
The test system of series [3] is P. falciparum Dd2-HLH. Description: microbe, parasite or virus in culture. The series is classed as cell-based, Plasmodium falciparum. The settings on record: read-out: Blood stage 72h EC50.
A short description of series [4]: Mammalian cell cytotoxicity assay, HEK293T (CellTiter-Glo, 72 h). The settings on record: human, HEK293T cells.
Series [5] in a line: Mammalian cell cytotoxicity assay, HepG2 (CellTiter-Glo, 72 h). The settings on record: human, HepG2 cells.
Where [6] appears, read: 48 hours in culture, read-out: Liver stage 48h EC50.
[7] abbreviates: P. falciparum blood-stage parasites, 48 hours in culture, read-out: Blood stage 48h EC50.
Where [8] appears, read: P. falciparum blood-stage parasites, 72 hours in culture.
The mark [9] stands for this setting: Plasmodium berghei, 48 h in culture, read-out: Liver 48 h EC50.
[10] abbreviates: Plasmodium falciparum, DD2, 48 h, read-out: Blood stage 48h EC50.
The mark [11] stands for this setting: Plasmodium falciparum, DD2, Hec50, 48 h, read-out: Blood stage 48 h EC50.
[12] abbreviates: Plasmodium falciparum, DD2, 72 h.
[13] abbreviates: Plasmodium berghei, HepG2, 48 hours in culture, read-out: Liver stage 48h EC50.
[14] abbreviates: Plasmodium falciparum, DD2, P. falciparum blood-stage parasites, 48 hours in culture, read-out: Blood stage 48h EC50.
[15] abbreviates: Plasmodium falciparum, DD2, P. falciparum blood-stage parasites, 72 hours in culture.

Counter-ions that a name gives are not always drawn. Like-named read-outs stand apart in the source and are kept apart here.

By EC50 is commonly meant the concentration that produces a half-maximal response. As a reminder, the CC50 is the concentration that lowers cell viability or growth by half. Turning to `COc1cc2nc(-c3ccc(N4CCN(C)CC4)cc3)nc(NCCN3CCOCC3)c2cc1OC` [CPG-52364], the concentration giving a half-maximal response (EC50) in series [1] (setting [6]) amounted to 1100 nM; with P. falciparum Dd2-HLH [2] (setting [7]), 100 nM; with P. falciparum Dd2-HLH [3] (setting [8]), 381 nM. In addition, in the series with HEK293T cells (HEK293T cells), the CC50 was 1640 nM.

As to `COc1ccc(-c2nc(N3CCOCC3)c3sc(CN(C)c4ncc(C(=O)NO)cn4)cc3n2)cn1` [CUDC-907, reference compound], the EC50 was 39 nM in series [1] (setting [9]), 8 nM in the series on P. falciparum Dd2-HLH [2] (setting [10]), 7.5 nM in the series with P. falciparum Dd2-HLH [2] (setting [11]) and 18 nM in the series with P. falciparum Dd2-HLH [3] (setting [12]). Moreover, the half-maximal cytotoxic concentration (CC50) at 72 h amounted to 27 nM in series [4] and 3 nM in series [5].

Turning to `CO[C@H]1C(=O)[C@]2(C)[C@@H](OC)C[C@H]3OC[C@@]3(OC(C)=O)[C@H]2[C@H](OC(=O)c2ccccc2)[C@]2(O)C[C@H](OC(=O)[C@H](O)[C@@H](NC(=O)OC(C)(C)C)c3ccccc3)C(C)=C1C2(C)C` [Cabazitaxel, reference compound], the 50% effective concentration (EC50) in series [1] (setting [9]) turned out to be 43 nM; with P. falciparum Dd2-HLH [2] (setting [11]) it was 6 nM; in the series on P. falciparum Dd2-HLH [3] (setting [12]), 8 nM. The CC50 at 72 h is more than 9950 nM in series [4] and 784 nM in series [5].

Consider `CC(=O)O[C@@]12CO[C@@H]1C[C@H](O)[C@@]1(C)C(=O)[C@H](O)C3=C(C)[C@@H](OC(=O)[C@H](O)[C@@H](NC(=O)OC(C)(C)C)c4ccccc4)C[C@@](O)([C@@H](OC(=O)c4ccccc4)[C@H]21)C3(C)C` [Docetaxel], for which the EC50 in series [1] (setting [13]) was 401 nM; in the series on P. falciparum Dd2-HLH [2] (setting [10]), 11 nM; with P. falciparum Dd2-HLH [3] (setting [12]) it was 11 nM. In addition, the CC50 at 72 h was more than 9950 nM in series [4] and 24 nM in series [5].

`COc1cccc2c1C(=O)c1c(O)c3c(c(O)c1C2=O)C[C@@](O)(C(=O)CO)C[C@@H]3O[C@H]1C[C@H](N)[C@H](O)[C@H](C)O1` [Doxorubicin]: the concentration giving a half-maximal response (EC50) in series [1] (setting [13]) was found to be 1720 nM; with P. falciparum Dd2-HLH [2] (setting [10]) it was 65 nM; in the series on P. falciparum Dd2-HLH [3] (setting [12]), 250 nM. The results for the CC50 at 72 h in series [4] and in series [5] were 74 nM and 44 nM, respectively.

`Cc1ncc(NC(=O)c2ccc(CN3CCN(C)CC3)c(C(F)(F)F)c2)cc1Nc1nccc(-c2cccnc2)n1` [Flumatinib mesylate]: the figures for the half-maximal effective concentration (EC50) (in series [1] (setting [6]); in the series with P. falciparum Dd2-HLH [2] (setting [7]); in the series with P. falciparum Dd2-HLH [3] (setting [8])) were more than 10000 nM, 85 nM and 213 nM, respectively. Besides, the 50% cytotoxic concentration (CC50) with HEK293T cells (HEK293T cells) was more than 9950 nM.

`O=C(Nc1ccccc1)N[C@@H]1C(=O)N(CC23CC4CC(CC(C4)C2)C3)c2ccccc2N(c2ccccc2)C1=O` [GV 150013]: the EC50 in series [1] (setting [6]) is more than 10000 nM; with P. falciparum Dd2-HLH [3] (setting [8]), 253 nM. Moreover, the CC50 with HEK293T cells (HEK293T cells) was more than 9950 nM.

Take `CCCCCC(=O)O[C@]1(C(C)=O)CC[C@H]2[C@@H]3CCC4=CC(=O)CC[C@]4(C)[C@H]3CC[C@@]21C` [Hydroxyprogesterone caproate]: the EC50 in series [1] (setting [13]) was 1710 nM; in the series on P. falciparum Dd2-HLH [2] (setting [10]), 550 nM; in the series with P. falciparum Dd2-HLH [3] (setting [12]) it was 742 nM. For the same molecule, the CC50 at 72 h was more than 9950 nM in series [4] and 863 nM in series [5].

For `CN(C)CCCN1c2ccccc2CCc2ccccc21` [Imipramine hydrochloride], the EC50 in series [1] (setting [13]) is more than 10000 nM; in the series on P. falciparum Dd2-HLH [2] (setting [10]), 180 nM; in the series on P. falciparum Dd2-HLH [3] (setting [12]), 963 nM. Further, the 50% cytotoxic concentration (CC50) at 72 h in series [4] and in series [5] was more than 9950 nM throughout.

Consider `CCc1ccc(OCc2ccccc2C(=O)Nc2ccc3nc(C)cc(N)c3c2)cc1` [JTC-801], for which the EC50 in series [1] (setting [6]) is 429 nM; in the series with P. falciparum Dd2-HLH [2] (setting [7]), 123 nM; in the series on P. falciparum Dd2-HLH [3] (setting [8]) it was 635 nM. For the same molecule, the CC50 in the series on HEK293T cells (HEK293T cytotoxicity) amounted to 1810 nM.

Consider `c1ccc(Cn2c(N3CCNCC3)nc3ccccc32)cc1` [Lerisetron], for which the values for the EC50 (in series [1] (setting [13]); in the series with P. falciparum Dd2-HLH [2] (setting [10]); in the series with P. falciparum Dd2-HLH [3] (setting [12])) were 1130 nM, 144 nM and 267 nM, respectively. For the same molecule, the half-maximal cytotoxic concentration (CC50) at 72 h was more than 9950 nM in series [4] and 236 nM in series [5].

On to `C[C@]12O[C@H](C[C@]1(O)CO)n1c3ccccc3c3c4c(c5c6ccccc6n2c5c31)CNC4=O` [Lestaurtinib], for which the half-maximal effective concentration (EC50) in series [1] (setting [13]) worked out at 1020 nM; in the series on P. falciparum Dd2-HLH [2] (setting [14]), 88 nM; in the series on P. falciparum Dd2-HLH [3] (setting [15]), 259 nM. For the same molecule, the figures for the 50% cytotoxic concentration (CC50) at 72 h in series [4] and in series [5] were 551 nM and 29 nM, respectively.

Turning to `COCCNCc1ccc(-c2cc3nccc(Oc4ccc(NC(=O)C5(C(=O)Nc6ccc(F)cc6)CC5)cc4F)c3s2)nc1` [MG-516], the concentration giving a half-maximal response (EC50) in series [1] (setting [13]) was 2180 nM; in the series with P. falciparum Dd2-HLH [2] (setting [10]), 144 nM; in the series with P. falciparum Dd2-HLH [3] (setting [12]) it was 673 nM. Also, the CC50 at 72 h in series [4] came out at 2250 nM; in series [5], 1460 nM.

Turning to `COc1ccc(-c2ccc3ncc4c(c3c2)n(-c2ccc(N3CCNCC3)c(C(F)(F)F)c2)c(=O)n4C)cn1` [NVP-BGT226, reference compound], the EC50 in series [1] (setting [13]) is 1 nM; in series [1] (setting [9]), 0.5 nM; with P. falciparum Dd2-HLH [2] (setting [10]), 1 nM; with P. falciparum Dd2-HLH [2] (setting [11]) it was 0.6 nM; with P. falciparum Dd2-HLH [3] (setting [12]), 6 nM. The CC50 at 72 h in series [4] was 35 nM; in series [5], 3 nM.

In the case of `CC(=O)O[C@H]1C(=O)[C@@]2(C)[C@H]([C@H](OC(=O)c3ccccc3)[C@]3(O)C[C@H](OC(=O)[C@H](O)[C@@H](NC(=O)c4ccccc4)c4ccccc4)C(C)=C1C3(C)C)[C@]1(OC(C)=O)CO[C@@H]1C[C@@H]2O` [Paclitaxel], the concentration for a half-maximal effect (EC50) in series [1] (setting [13]) is 7530 nM; in the series on P. falciparum Dd2-HLH [2] (setting [10]) it was 164 nM; in the series with P. falciparum Dd2-HLH [3] (setting [12]), 186 nM. In addition, the CC50 at 72 h in series [4] is more than 9950 nM; in series [5] it was 7040 nM.

In the case of `COc1ccc(C[C@H](N)C(=O)N[C@H]2[C@@H](O)[C@H](n3cnc4c(N(C)C)ncnc43)O[C@@H]2CO)cc1` [Puromycin], the EC50 in series [1] (setting [13]) came out at 840 nM; in the series on P. falciparum Dd2-HLH [2] (setting [10]) it was 61 nM; in the series on P. falciparum Dd2-HLH [3] (setting [12]) it was 125 nM. The 50% cytotoxic concentration (CC50) at 72 h in series [4] was found to be 1240 nM; in series [5] it was 498 nM.

Consider `CN1CCC(CNc2ccc3ncc(-c4cccc(OC(F)(F)F)c4)n3n2)CC1` [SGI-1776], for which the values for the EC50 (in series [1] (setting [13]); in the series on P. falciparum Dd2-HLH [2] (setting [10]); in the series on P. falciparum Dd2-HLH [3] (setting [12])) were 1790 nM, 482 nM and 623 nM, respectively. In addition, the results for the CC50 at 72 h in series [4] and in series [5] were 4580 nM and 1040 nM, respectively.

On to `CN(c1ccc(Cl)cc1)c1cc[n+](Cc2ccc(-c3ccc(C[n+]4ccc(N(C)c5ccc(Cl)cc5)c5ccccc54)cc3)cc2)c2ccccc12` [TCD-717], for which the EC50 in series [1] (setting [13]) worked out at 102 nM; in the series on P. falciparum Dd2-HLH [2] (setting [10]), 63 nM; with P. falciparum Dd2-HLH [3] (setting [12]), 714 nM. In addition, the CC50 at 72 h was found to be 1930 nM in series [4] and 4770 nM in series [5].

On to `CC[C@]1(O)C[C@@H]2CN(CCc3c([nH]c4ccccc34)[C@@](C(=O)OC)(c3cc4c(cc3OC)N(C)[C@H]3[C@@](O)(C(N)=O)[C@H](O)[C@]5(CC)C=CCN6CC[C@]43[C@@H]65)C2)C1` [Vindesine], for which the concentration giving a half-maximal response (EC50) came to 837 nM in series [1] (setting [13]), 14 nM in the series with P. falciparum Dd2-HLH [2] (setting [10]) and 20 nM in the series on P. falciparum Dd2-HLH [3] (setting [12]). For the same molecule, the values for the CC50 at 72 h in series [4] and in series [5] were more than 9950 nM and more than 9990 nM, respectively.

For the molecule `COC1=C(C)C(=O)C2=C(C1=O)[C@@H](COC(N)=O)[C@@]1(OC)[C@H]3N[C@H]3CN21` [mitomycin A, reference compound], the concentration giving a half-maximal response (EC50) in series [1] (setting [13]) is 1360 nM; in the series with P. falciparum Dd2-HLH [2] (setting [14]) it was 38 nM; in the series with P. falciparum Dd2-HLH [2] (Plasmodium falciparum, DD2, stage and incubation time not given, read-out: EC50 (antiplasmodial, quoted in discussion from Supplementary Table 1)) it was 37.7 nM; with P. falciparum Dd2-HLH [3] (setting [15]) it was 18 nM. The figures for the CC50 at 72 h in series [4] and in series [5] were 362 nM and 32 nM, respectively.

Consider `CN(C)Cc1ccc(S(=O)(=O)n2ccc(/C=C/C(=O)NO)c2)cc1` [resminostat, reference compound], for which the EC50 in series [1] (setting [13]) turned out to be 7060 nM; with P. falciparum Dd2-HLH [2] (Plasmodium falciparum, DD2, read-out: EC50 (antiplasmodial, quoted in discussion from Supplementary Table 1)) it was 431 nM; in the series with P. falciparum Dd2-HLH [3] (setting [12]), 697 nM. The CC50 at 72 h turned out to be 3550 nM in series [4] and 1200 nM in series [5].

(Values after article PMC11145868, “Protein target similarity is positive predictor of in vitro antipathogenic activity: a drug repurposing strategy for Plasmodium falciparum” (Journal of Cheminformatics, 2024).)
